Entries after “also recorded” stand apart in the source; their conditions may differ.
Legend:
Daphnia magna = assay: Aquatic toxicity screen, Daphnia sp. Acute Immobilization Test (OECD 202 / OPPTS 850.1010); conditions: for 48-Hour EC50: 48-hour exposure, static test conditions
Protocol: The study is performed based on procedures in the OECD Guidelines for Testing of Chemicals, Guideline 202: Daphnia sp., Acute Immobilization Test, and U.S. EPA Guidelines, OPPTS Number 850.1010: Aquatic Invertebrate Acute Toxicity Test. The half maximal effective concentration (EC50) after 48 hours is reported below.

wild oat (AVEFA) = assay: Agricultural field test of glyphosate with adjuvant, visual weed control (second trial); type: in vivo, Avena fatua; conditions: glyphosate 480 g.a.e./ha; for AVEFA 9 DAT, %: 0-100, 9 DAT; for AVEFA 23 DAT, %: 0-100, 23 DAT
Protocol: (§1) Amine ethoxylates are evaluated as adjuvants for glyphosate formulations in agricultural field tests performed by an independent laboratory. The weed species included in the evaluation are common lambsquarters (CHEAL), barnyard grass (ECHCG), and wild oat (AVEFA).
(§2) Two field trials are conducted in the Netherlands during the summer. In the first trial, common lambsquarters (CHEAL, Chenopodium album), barnyard grass (ECHCG, Echinochloa crus-galls) and wild oat (AVEFA, Avena fatua) are sown in three distinct zones of the same size in a 4×2 m field plot. Other emerging weed species are removed by hand as needed. Five weeks after sowing, the plots are treated and weed control is visually assessed 8, 14, and 22 days after treatment (DAT). Visual assessment is used with a scale of 0=no effect to 100=complete kill. Growth reduction is included in this assessment. On the day of treatment, ECHCG has more than six leaves, and CHEAL has at least six unfolded leaves. A second test with AVEFA alone is conducted because the level of emergence was too low in the first test. (Results from the first AVEFA testing are not included.) AVEFA is at the 3-leaf stage on the day of treatment. The plots are visually evaluated 9 and 23 days after treatment.
(§3) A glyphosate potassium solution (540 g.a.e./L) without surfactants or other adjuvant chemicals is used to prepare solutions that contain the adjuvants listed in Table 2A. Roundup® Powermax® (540 g.a.e./L, product of Monsanto) is used as a control. The glyphosate solutions are diluted with deionized water such that application at a water volume of 80 L/ha results in a glyphosate application rate of 480 g.a.e./ha. Adjuvants are included in the diluted glyphosate solution at a ratio of 160 g adjuvant per 540 g.a.e. glyphosate. In this way, commercial glyphosate products containing glyphosate at 540 g.a.e./L and adjuvant at 160 g/L are simulated.
(§4) Glyphosate solutions are applied with a backpack sprayer having a TeeJet® TP8003E nozzle set to deliver 80 L/ha at 150 kPa. The application with the first trial started early in the morning in mid-summer. Conditions: sunny skies, relative humidity 80%, temperature 18° C., little or no wind, wet soil, damp foliage. Application of AVEFA trial starts in early autumn late in the afternoon. Conditions: partly cloudy, relative humidity 79%, temperature 15° C., little or no wind, wet soil, dry foliage.

barnyard grass (ECHCG) = assay: Agricultural field test of glyphosate with adjuvant, visual weed control; type: in vivo, Echinochloa crus-galls; conditions: for ECHCG control relative to Roundup Powermax / ECHCG 22 DAT, %: 22 DAT; for ECHCG 8 DAT, % / ECHCG 14 DAT, % / ECHCG 22 DAT, %: visual weed control, 0-100, glyphosate 480 g.a.e./ha
Protocol: as §1, §2, §3, §4

[1] = tested on: common lambsquarters (CHEAL); assay: as above; type: in vivo, Chenopodium album; conditions: for CHEAL control relative to the control: 8 and 14 DAT; for CHEAL control relative to Roundup Powermax / CHEAL 22 DAT, %: 22 DAT; for CHEAL 14 DAT, % / CHEAL 22 DAT, % / CHEAL 8 DAT, %: visual weed control, glyphosate 480 g.a.e./ha; for CHEAL 14 DAT, % / CHEAL 22 DAT, %: 0-100; for CHEAL 8 DAT, %: 0=no effect to 100=complete kill, 160 g adjuvant per 540 g.a.e.
Protocol: as §1, §2, §3, §4

[2] = tested on: common lambsquarters (CHEAL), barnyard grass (ECHCG), and wild oat (AVEFA); assay: Agricultural field testing, overall performance over the weed species; type: in vivo; conditions: all weed species, glyphosate 480 g.a.e./ha
Protocol: as §1
as §2, with “after treatment. […]” for “after treatment.”

| Substance | 48-Hour EC50 (Daphnia magna) [µg/mL] | aquatic toxicity rating (Daphnia magna; in vivo) | AVEFA 9 DAT, % (wild oat (AVEFA)) [%] | AVEFA 23 DAT, % (wild oat (AVEFA)) [%] | ECHCG control relative to Roundup Powermax (barnyard grass (ECHCG)) | ECHCG 8 DAT, % (barnyard grass (ECHCG)) [%] | ECHCG 14 DAT, % (barnyard grass (ECHCG)) [%] | ECHCG 22 DAT, % (barnyard grass (ECHCG)) [%] | CHEAL control relative to the control [1] | CHEAL control relative to Roundup Powermax [1] | CHEAL 14 DAT, % [1] [%] | CHEAL 22 DAT, % [1] [%] | CHEAL 8 DAT, % [1] [%] | overall field performance as glyphosate adjuvant [2] | overall field performance as glyphosate adjuvant ([2]; listed as C11 unsaturated 2EO ethoxylate) |
| --- | --- | --- | --- | --- | --- | --- | --- | --- | --- | --- | --- | --- | --- | --- | --- |
| saturated C11 fatty amine 5EO ethoxylate [Saturated C11 amine 5EO ethoxylate] | 3.3 | moderately toxic | – | – | – | – | – | – | – | – | – | – | – | – | – |
| C11 unsaturated fatty amine 2EO ethoxylate [Agent B] | – | – | 87.5 | 100 | outperform Roundup Powermax; also recorded: top performer | 100 | 97.7 | 100 | outperform the control | same performance as Roundup Powermax | 97.7 | 96.7 | 86.7 | best overall performance of the group | outperforms its saturated analog |
| unsaturated C11 fatty amine 5EO ethoxylate [Unsaturated C11 amine 5 EO ethoxylate] | 20 | – | – | – | – | – | – | – | – | – | – | – | – | – | – |
| C11 saturated fatty amine 2EO ethoxylate [Comparative Agent D, reference compound] | – | – | 82.5 | 100 | outperform Roundup Powermax | 97.5 | 91.3 | 100 | outperform the control | same performance as Roundup Powermax | 91.3 | 92.5 | 75.0 | – | – |
